Source: patent US20110200557A1, “NEW 2-AMIDOTHIADIAZOLE DERIVATIVES” (priority 2008, published 2011)

The compounds below were run against S1P1 receptors (Homo sapiens, UniProt P21453) (assay: 35S-GTPyS binding assay). Conditions: membranes; compound 0.1 nM-10 μM; 0.1 nM 35S-GTPyS; 10 μM S1P as 100% maximum efficacy; 90 min at room temperature.
Assay type: biochemical
Experimental: The effect of the compounds was measured using a 35S-GTPyS binding assay. Briefly, membranes were incubated in a buffer containing 20 mM HEPES pH 7.4, 100 mM NaCl, 10 mM MgCl2, 10 μM GDP, 50 μg/ml saponin and 0.2% fatty acid-free BSA at various concentrations (0.1 nM-10 μM) and 0.1 nM 35S-GTPyS. 10 μM S1P was used as 100% maximum efficacy. The assay was incubated for 90 min at room temperature with gentle mixing, and terminated by filtrating the reaction mixture through GF/C filter plates using the Manifold Filtration System. The filters were immediately washed with sodium phosphate pH 7.4 buffers. After drying the filter plate's scintillant liquid were added to each well and 35S-GTPyS binding was measured on a Trilux Scintillation Counter.

Chain of S1P1 receptors (P21453 whole entry): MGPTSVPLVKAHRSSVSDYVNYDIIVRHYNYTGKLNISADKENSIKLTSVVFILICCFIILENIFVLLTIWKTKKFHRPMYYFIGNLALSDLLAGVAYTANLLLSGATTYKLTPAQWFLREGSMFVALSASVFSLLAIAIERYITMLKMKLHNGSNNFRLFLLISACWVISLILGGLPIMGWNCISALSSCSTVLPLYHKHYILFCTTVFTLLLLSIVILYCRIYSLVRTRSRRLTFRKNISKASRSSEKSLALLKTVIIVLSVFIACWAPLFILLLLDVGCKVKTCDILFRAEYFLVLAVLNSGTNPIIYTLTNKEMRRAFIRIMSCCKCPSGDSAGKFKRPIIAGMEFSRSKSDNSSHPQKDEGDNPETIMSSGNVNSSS

| Structure (SMILES) | EC50 [nM] |
| --- | --- |
| CCCCN(C(=O)c1ccccc1Cl)c1nnc(-c2cc(C)c(O)c(C)c2)s1 [Example 8, N-butyl-2-chloro-N-[5-(4-hydroxy-3,5-dimethylphenyl)-1,3,4-thiadiazol-2-yl]benzamide] | 6.2 |
| CCCCN(C(=O)c1ccccc1F)c1nnc(-c2cc(C)c(OC)c(C)c2)s1 [Example 9, N-butyl-2-fluoro-N-[5-(4-methoxy-3,5-dimethylphenyl)-1,3,4-thiadiazol-2-yl]benzamide] | 4.4 |
| CCCCN(C(=O)c1ccccc1OC)c1nnc(-c2cc(C)c(OC)c(C)c2)s1 [Example 19, N-butyl-2-methoxy-N-[5-(4-methoxy-3,5-dimethylphenyl)-1,3,4-thiadiazol-2-yl]benzamide] | 8.3 |
| CCCCN(C(=O)c1ccccc1Cl)c1nnc(-c2cc(Cl)nc(OC)c2)s1 [Example 31, N-Butyl-2-chloro-N-[5-(2-chloro-6-methoxypyridin-4-yl)-1,3,4-thiadiazol-2-yl]benzamide] | 3.4 |
| CCCCN(C(=O)c1ccccc1Cl)c1nnc(-c2cc(C)c(OCCOC)c(C)c2)s1 [Example 32, N-butyl-2-chloro-N-{5-[4-(2-methoxyethoxy)-3,5-dimethylphenyl]-1,3,4-thiadiazol-2-yl}benzamide] | 64.2 |
| CCCCN(C(=O)c1ccccc1Cl)c1nnc(-c2cc(C)nc(Cl)c2)s1 [Example 39, N-Butyl-2-chloro-N-[5-(2-chloro-6-methylpyridin-4-yl)-1,3,4-thiadiazol-2-yl]benzamide] | 3.8 |
| COc1c(C)cc(-c2nnc(N(CC3CC3)C(=O)c3ccccc3F)s2)cc1C [Example 46, N-(cyclopropylmethyl)-2-fluoro-N-[5-(4-methoxy-3,5-dimethylphenyl)-1,3,4-thiadiazol-2-yl]benzamide] | 36 |
| CCCCN(C(=O)c1ccccc1F)c1nnc(-c2ccc(OC)nc2)s1 [Example 48, N-butyl-2-fluoro-N-(5-(6-methoxypyridin-3-yl)-1,3,4-thiadiazol-2-yl)benzamide] | 116 |
| CCCCN(C(=O)c1ccccc1F)c1nnc(-c2ccc3nccn3c2)s1 [Example 49, N-butyl-2-fluoro-N-(5-(imidazo[1,2-a]pyridin-6-yl)-1,3,4-thiadiazol-2-yl)benzamide] | 88.7 |
| CCCCN(C(=O)c1ccccc1Cl)c1nnc(-c2ccc(C(N)=O)cc2)s1 [Example 53, N-butyl-N-(5-(4-carbamoylphenyl)-1,3,4-thiadiazol-2-yl)-2-chlorobenzamide] | 46.3 |
| CCCCN(C(=O)c1ccccc1F)c1nnc(-c2ccc(C(=O)NCCC(=O)O)cc2)s1 [Example 69, N-(4-{5-[Butyl(2-fluorobenzoyl)amino]-1,3,4-thiadiazol-2-yl}benzoyl)-beta-alanine] | 55 |
| CCCCN(C(=O)Cc1ccccc1F)c1nnc(-c2ccc(CN3CC(C(=O)O)C3)cc2)s1 [Example 87, 1-[4-(5-{Butyl[(2-fluorophenyl)acetyl]amino}-1,3,4-thiadiazol-2-yl)benzyl]azetidine-3-carboxylic acid] | 1.4 |
| CCCCN(C(=O)c1ccccc1F)c1nnc(-c2ccc(CN3CCC(C(=O)O)C3)cc2C)s1 (stereo not drawn) [Example 97, 1-(4-{5-[Butyl(2-fluorobenzoyl)amino]-1,3,4-thiadiazol-2-yl}-3-methylbenzyl)-pyrrolidine-3-carboxylic acid] | 2 |
| CCCCN(C(=O)c1ccccc1F)c1nnc(-c2cc(C)c(OCCN)c(C)c2)s1 [Example 105, N-{5-[4-(2-Aminoethoxy)-3,5-dimethylphenyl]-1,3,4-thiadiazol-2-yl}-N-butyl-2-fluorobenzamide] | 0.45 |
| CCN(C(=O)c1cccc(Cl)c1F)c1nnc(-c2ccc(CN3CC(C(=O)O)C3)cc2)s1 [Example 108, 1-(4-{5-[(3-Chloro-2-fluorobenzoyl)(ethyl)amino]-1,3,4-thiadiazol-2-yl}benzyl)-azetidine-3-carboxylic acid] | 7 |
| CCCCN(C(=O)c1cccc(Cl)c1F)c1nnc(-c2cc(C)c(OCC(O)CO)c(C)c2)s1 (stereo not drawn) [Example 111, N-Butyl-3-chloro-N-{5-[4-(2,3-dihydroxypropoxy)-3,5-dimethylphenyl]-1,3,4-thiadiazol-2-yl}-2-fluorobenzamide] | 0.15 |
| CCCCN(C(=O)c1ccccc1F)c1nnc(-c2cc(C)c(OCC(O)CN)c(C)c2)s1 (stereo not drawn) [Example 113, N-{5-[4-(3-Amino-2-hydroxypropoxy)-3,5-dimethylphenyl]-1,3,4-thiadiazol-2-yl}-N-butyl-2-fluorobenzamide] | 1.52 |
| CCCCN(C(=O)c1ccccc1Cl)c1nnc(-c2ccc(CN3CCC(C(=O)O)CC3)cc2C)s1 [Example 118, 1-(4-{5-[Butyl(2-chlorobenzoyl)amino]-1,3,4-thiadiazol-2-yl}-3-methylbenzyl)-piperidine-4-carboxylic acid] | 4.42 |
